Paper PMC4893642 (Theranostics, 2016)
Values joined by “and” are separate entries in the source; they are usually repeats but may differ in a detail not shown here. Equal entries are not always repeated.

Columns and labels:
[1] = Ex vivo whole body biodistribution in mice
CB1 receptors = CB1 receptors (Homo sapiens, UniProt P21554); assay: CB1 agonist/antagonist test; format: cell-based; details: at concentrations up to 30 µM
CB2 receptors = CB2 receptors (Homo sapiens, UniProt P34972); assay: CB2 agonist/antagonist test; format: cell-based; details: at concentrations up to 30 µM
human recombinant MAGL = target: T1, human recombinant MAGL (Homo sapiens, UniProt Q99685); assay: In vitro MAGL inhibition enzyme assay; format: biochemical; details: 4-nitrophenylacetate substrate
T1 sequence (Q99685 1-303): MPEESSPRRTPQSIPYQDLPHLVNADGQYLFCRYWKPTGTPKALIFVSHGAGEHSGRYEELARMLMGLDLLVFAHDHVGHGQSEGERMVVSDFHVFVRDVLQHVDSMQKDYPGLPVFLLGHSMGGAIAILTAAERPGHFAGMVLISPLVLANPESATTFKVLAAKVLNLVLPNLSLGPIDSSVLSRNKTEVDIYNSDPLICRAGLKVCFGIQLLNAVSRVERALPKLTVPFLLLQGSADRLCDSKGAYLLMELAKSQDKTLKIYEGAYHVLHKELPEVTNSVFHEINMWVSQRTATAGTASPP

MAGL = target: T2, MAGL (Rattus norvegicus, UniProt Q8R431); details: 30 min i.v. before injection
T2 sequence (Q8R431 1-303): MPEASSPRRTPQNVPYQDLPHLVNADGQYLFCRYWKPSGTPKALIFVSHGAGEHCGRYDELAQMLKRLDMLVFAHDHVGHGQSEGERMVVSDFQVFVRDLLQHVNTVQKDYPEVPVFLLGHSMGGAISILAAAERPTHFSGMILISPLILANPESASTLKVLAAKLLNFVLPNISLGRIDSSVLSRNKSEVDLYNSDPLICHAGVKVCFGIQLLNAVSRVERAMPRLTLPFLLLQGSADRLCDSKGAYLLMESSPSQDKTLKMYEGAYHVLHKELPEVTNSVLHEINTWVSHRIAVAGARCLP

FAAH = target: T3, FAAH (Homo sapiens, UniProt O00519); assay: In vitro FAAH inhibition enzyme assay; format: biochemical; details: read-out: inhibition of FAAH enzyme
T3 sequence (O00519 1-579): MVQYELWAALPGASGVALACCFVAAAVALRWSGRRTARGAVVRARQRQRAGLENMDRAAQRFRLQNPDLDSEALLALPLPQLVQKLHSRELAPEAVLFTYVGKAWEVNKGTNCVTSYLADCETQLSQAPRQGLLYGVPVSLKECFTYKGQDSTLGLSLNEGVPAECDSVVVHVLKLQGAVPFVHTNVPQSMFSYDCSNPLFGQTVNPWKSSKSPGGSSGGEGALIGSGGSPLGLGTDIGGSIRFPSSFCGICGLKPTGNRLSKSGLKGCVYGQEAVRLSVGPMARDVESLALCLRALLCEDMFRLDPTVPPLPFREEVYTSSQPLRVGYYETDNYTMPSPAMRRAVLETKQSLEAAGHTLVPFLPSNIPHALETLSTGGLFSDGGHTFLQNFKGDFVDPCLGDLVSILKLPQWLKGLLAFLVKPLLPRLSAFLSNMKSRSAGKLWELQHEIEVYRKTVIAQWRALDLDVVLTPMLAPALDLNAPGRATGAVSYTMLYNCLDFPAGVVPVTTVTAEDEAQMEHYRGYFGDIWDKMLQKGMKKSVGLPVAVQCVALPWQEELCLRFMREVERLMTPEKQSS

Chain of CB1 receptors (P21554 whole entry): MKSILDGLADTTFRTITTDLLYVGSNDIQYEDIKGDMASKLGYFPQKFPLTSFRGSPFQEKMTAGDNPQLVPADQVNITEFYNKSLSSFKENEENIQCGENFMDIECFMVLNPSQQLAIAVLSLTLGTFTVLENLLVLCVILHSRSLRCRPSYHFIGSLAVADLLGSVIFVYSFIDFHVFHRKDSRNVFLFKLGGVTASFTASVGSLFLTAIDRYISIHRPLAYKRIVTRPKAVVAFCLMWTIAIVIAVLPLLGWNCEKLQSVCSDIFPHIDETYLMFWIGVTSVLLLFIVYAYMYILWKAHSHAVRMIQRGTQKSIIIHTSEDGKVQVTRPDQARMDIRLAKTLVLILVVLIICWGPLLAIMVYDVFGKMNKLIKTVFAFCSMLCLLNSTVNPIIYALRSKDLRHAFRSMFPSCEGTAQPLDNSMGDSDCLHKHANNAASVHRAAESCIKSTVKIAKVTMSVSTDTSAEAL
Chain of CB2 receptors (P34972 whole entry): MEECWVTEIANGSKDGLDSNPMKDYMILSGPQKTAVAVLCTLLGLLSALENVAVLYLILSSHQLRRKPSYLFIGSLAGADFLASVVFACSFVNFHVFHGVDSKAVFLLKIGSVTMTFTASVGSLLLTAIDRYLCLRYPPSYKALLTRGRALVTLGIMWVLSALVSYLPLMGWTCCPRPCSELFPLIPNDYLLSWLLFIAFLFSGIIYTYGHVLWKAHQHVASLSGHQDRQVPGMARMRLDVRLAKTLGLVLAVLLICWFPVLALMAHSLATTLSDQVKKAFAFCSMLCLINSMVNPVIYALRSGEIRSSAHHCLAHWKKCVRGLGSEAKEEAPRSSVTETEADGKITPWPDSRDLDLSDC

O=C(OC(C(F)(F)F)C(F)(F)F)N1CCC(CNS(=O)(=O)c2ccc(Cl)cc2)CC1 [Compound 5a, 1,1,1,3,3,3-hexafluoropropan-2-yl 4-(((4-chlorophenyl)sulfonamido)methyl)piperidine-1-carboxylate]
uptake in the liver, kidneys and small intestine [1]: High uptake
CB1 receptor agonism or antagonism (CB1 receptors): No significant CB1 and CB2 receptors agonism or antagonism
CB2 receptor agonism or antagonism (CB2 receptors): No significant CB1 and CB2 receptors agonism or antagonism

O=C(N1CCC(CNS(=O)(=O)c2ccc(Cl)cc2)CC1)n1cncn1 [Compound 5f, N-((1-(1H-1,2,4-triazole-1-carbonyl)piperidin-4-yl)methyl)-4-chlorobenzenesulfonamide]
IC50 (human recombinant MAGL): 39.3 nM and 35.9 nM
uptake in the liver, kidneys and small intestine [1]: High uptake
reduction of [11C]5f uptake in cerebellum by pretreatment (MAGL; rat, blocker 1 mg/kg): 53%
reduction of [11C]5f uptake in cerebral cortex by pretreatment (MAGL; rat, blocker 1 mg/kg): 42%
reduction of [11C]5f whole brain uptake by pretreatment (MAGL; rat, blocker 1 mg/kg): 48%
inhibition at 0.5 µM (FAAH): 75%
CB1 receptor agonism or antagonism (CB1 receptors): No significant CB1 and CB2 receptors agonism or antagonism
CB2 receptor agonism or antagonism (CB2 receptors): No significant CB1 and CB2 receptors agonism or antagonism

NC(=O)c1cccc(-c2cccc(OC(=O)NC3CCCCC3)c2)c1 [URB597, reference compound]
effect on [11C]SAR127303 uptake and distribution in rat brain (MAGL; blocker 3 mg/kg): no effect on the uptake and distribution in rat brain
